# In ChEMBL document CHEMBL5356994, “Synthesis, biological and molecular modelling for 1,3,4-thiadiazole sulfonyl thioureas: bacterial and fungal activity” (RSC Med Chem, 2023):
# Legend:
# [1] = test system: Staphylococcus epidermidis; test: Antibacterial activity against Staphylococcus epidermidis assessed as inhibition of bacterial growth incubated for 18 to 20 hrs by microbroth dilution method; format: functional; settings: time 18-20 hrs
# Staphylococcus aureus [2] = test: Antibacterial activity against Staphylococcus aureus assessed as inhibition of bacterial growth incubated for 18 to 20 hrs by microbroth dilution method; format: functional; settings: time 18-20 hrs
# Streptococcus pneumoniae = test: Antibacterial activity against Streptococcus pneumoniae assessed as inhibition of bacterial growth incubated for 18 to 20 hrs by microbroth dilution method; format: functional; settings: time 18-20 hrs
# Clostridioides difficile = test: Antibacterial activity against Clostridium difficile assessed as inhibition of bacterial growth incubated for 18 to 20 hrs by microbroth dilution method; format: functional; settings: time 18-20 hrs
# Bacillus subtilis = test: Antibacterial activity against Bacillus subtilis assessed as inhibition of bacterial growth incubated for 18 to 20 hrs by microbroth dilution method; format: functional; settings: time 18-20 hrs
# DNA gyrase subunit B = DNA gyrase subunit B (Staphylococcus aureus, UniProt P0A0K8); test: Inhibition of Staphylococcus aureus DNA gyrase subunit B ATPase activity using relaxed pNO1 plasmid as substrate incubated for 30 mins by microplate reader analysis
# Dihydrofolate reductase = Dihydrofolate reductase (Staphylococcus aureus, UniProt P0A017); test: Inhibition of Staphylococcus aureus dihydrofolate reductase using dihydrofolate as substrate in presence of NADPH by microplate reader analysis
# [3] = target: DNA topoisomerase 4 subunit B (Staphylococcus aureus, UniProt P0C1S7); test: Inhibition of Staphylococcus aureus DNA topoisomerase 4 subunit B ATPase activity using relaxed pNO1 plasmid as substrate incubated for 30 mins by microplate reader analysis
# Pseudomonas aeruginosa = test: Antibacterial activity against Pseudomonas aeruginosa assessed as inhibition of bacterial growth incubated for 18 to 20 hrs by microbroth dilution method; format: functional; settings: time 18-20 hrs
# Candida albicans [4] = test: Antifungal activity against Candida albicans assessed as inhibition of fungal growth incubated for 72 hrs by agar dilution method; format: functional
# Salmonella typhimurium = test: Antibacterial activity against Salmonella typhimurium assessed as inhibition of bacterial growth incubated for 18 to 20 hrs by microbroth dilution method; format: functional, Salmonella enterica subsp. enterica serovar Typhimurium; settings: Salmonella enterica; time 18-20 hrs
# Escherichia coli [5] = test: Antibacterial activity against Escherichia coli assessed as inhibition of bacterial growth incubated for 18 to 20 hrs by microbroth dilution method; format: functional; settings: time 18-20 hrs
# Aspergillus niger = test: Antifungal activity against Aspergillus niger assessed as inhibition of fungal growth incubated for 72 hrs by agar dilution method; format: functional
# Klebsiella pneumoniae = test: Antibacterial activity against Klebsiella pneumoniae assessed as inhibition of bacterial growth incubated for 18 to 20 hrs by microbroth dilution method; format: functional; settings: time 18-20 hrs
# Fusarium oxysporum = test: Antifungal activity against Fusarium oxysporum assessed as inhibition of fungal growth incubated for 72 hrs by agar dilution method; format: functional
# Saccharomyces cerevisiae = test: Antifungal activity against Saccharomyces cerevisiae assessed as inhibition of fungal growth incubated for 72 hrs by agar dilution method; format: functional
# Aspergillus flavus [6] = test: Antifungal activity against Aspergillus flavus assessed as inhibition of fungal growth incubated for 72 hrs by agar dilution method; format: functional
# Escherichia coli [7] = test: Antibacterial activity against Escherichia coli assessed as inhibition of bacterial growth incubated for 16 to 18 hrs by serial dilution method; format: functional; settings: time 16-18 hrs
# Aspergillus flavus [8] = test: Antifungal activity against Aspergillus flavus assessed as inhibition of fungal growth incubated for 16 to 18 hrs by serial dilution method; format: functional; settings: time 16-18 hrs
# Candida albicans [9] = test: Antifungal activity against Candida albicans assessed as inhibition of fungal growth incubated for 16 to 18 hrs by serial dilution method; format: functional; settings: time 16-18 hrs
# Candida albicans [10] = test: Antifungal activity against Candida albicans assessed as inhibition of fungal growth incubated for 20 hrs by macro-broth dilution method; format: functional
# Staphylococcus aureus [11] = test: Antibacterial activity against Staphylococcus aureus assessed as inhibition of bacterial growth incubated for 16 to 18 hrs by serial dilution method; format: functional; settings: time 16-18 hrs
# Carbonic anhydrase 2 = Carbonic anhydrase 2 (Homo sapiens, UniProt P00918); test: Inhibition of human carbonic anhydrase II esterase activity using p-nitrophenol acetate as substrate and measured for 3 mins by UV/visible spectrophotometric analysis
# [12] = test system: Mycobacterium tuberculosis; test: Antitubercular activity against Mycobacterium tuberculosis H37Rv assessed as inhibition of bacterial growth incubated for 24 hrs by two-fold dilution method; format: functional
# Phytophthora infestans = test: Antifungal activity against Phytophthora infestans assessed as inhibition of fungal growth incubated for 5 days by poison plate technique; format: functional, organism-based; settings: 120 h
# Sequence of Dihydrofolate reductase (P0A017 whole entry): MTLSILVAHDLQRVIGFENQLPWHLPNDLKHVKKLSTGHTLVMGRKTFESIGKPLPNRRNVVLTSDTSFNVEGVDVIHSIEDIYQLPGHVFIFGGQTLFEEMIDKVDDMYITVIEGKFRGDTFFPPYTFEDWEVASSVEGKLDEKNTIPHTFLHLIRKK
# Sequence of DNA gyrase subunit B (P0A0K8 whole entry): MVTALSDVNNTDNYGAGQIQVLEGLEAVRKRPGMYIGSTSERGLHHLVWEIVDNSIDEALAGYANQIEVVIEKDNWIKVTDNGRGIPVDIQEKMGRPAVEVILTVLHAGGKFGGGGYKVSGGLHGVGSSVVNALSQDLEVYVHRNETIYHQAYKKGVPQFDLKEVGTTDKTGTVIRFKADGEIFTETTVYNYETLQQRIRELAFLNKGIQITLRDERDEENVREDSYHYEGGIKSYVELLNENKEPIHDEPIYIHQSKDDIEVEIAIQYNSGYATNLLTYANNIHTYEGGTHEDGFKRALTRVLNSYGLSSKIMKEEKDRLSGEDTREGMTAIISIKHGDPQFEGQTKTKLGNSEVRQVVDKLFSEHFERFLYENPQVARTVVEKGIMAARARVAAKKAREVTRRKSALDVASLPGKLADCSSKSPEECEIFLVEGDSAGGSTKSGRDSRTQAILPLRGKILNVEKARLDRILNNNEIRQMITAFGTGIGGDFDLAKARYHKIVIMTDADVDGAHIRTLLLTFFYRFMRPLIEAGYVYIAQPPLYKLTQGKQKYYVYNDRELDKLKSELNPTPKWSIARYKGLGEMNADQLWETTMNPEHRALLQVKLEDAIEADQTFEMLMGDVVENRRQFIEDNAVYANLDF
# Sequence of DNA topoisomerase 4 subunit B (P0C1S7 whole entry): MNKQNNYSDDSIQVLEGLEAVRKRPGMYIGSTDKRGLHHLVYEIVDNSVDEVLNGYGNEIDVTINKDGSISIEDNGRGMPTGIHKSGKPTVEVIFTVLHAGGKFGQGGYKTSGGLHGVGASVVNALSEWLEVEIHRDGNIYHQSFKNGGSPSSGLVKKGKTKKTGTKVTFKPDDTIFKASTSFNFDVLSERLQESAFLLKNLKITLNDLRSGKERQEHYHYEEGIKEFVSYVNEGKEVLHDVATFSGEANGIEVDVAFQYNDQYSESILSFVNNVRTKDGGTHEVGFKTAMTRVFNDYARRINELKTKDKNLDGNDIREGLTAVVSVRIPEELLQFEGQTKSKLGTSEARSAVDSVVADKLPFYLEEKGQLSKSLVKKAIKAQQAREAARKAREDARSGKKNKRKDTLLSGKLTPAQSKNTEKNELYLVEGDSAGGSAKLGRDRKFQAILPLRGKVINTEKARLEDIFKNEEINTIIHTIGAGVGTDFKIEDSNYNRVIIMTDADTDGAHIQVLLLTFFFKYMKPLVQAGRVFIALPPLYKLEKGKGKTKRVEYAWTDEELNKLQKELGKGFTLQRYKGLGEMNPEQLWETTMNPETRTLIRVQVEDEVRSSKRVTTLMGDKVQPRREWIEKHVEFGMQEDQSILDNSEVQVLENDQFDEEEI
Structure (SMILES),MIC [1] [µg/mL],MIC (Staphylococcus aureus [2]) [µg/mL],MIC (Streptococcus pneumoniae) [µg/mL],MIC (Clostridioides difficile) [µg/mL],MIC (Bacillus subtilis) [µg/mL],MIC (Pseudomonas aeruginosa) [µg/mL],MIC (Candida albicans [4]) [µg/mL],MIC (Salmonella typhimurium) [µg/mL],MIC (Escherichia coli [5]) [µg/mL],MIC (Aspergillus niger) [µg/mL],MIC (Klebsiella pneumoniae) [µg/mL],MIC (Fusarium oxysporum) [µg/mL],MIC (Saccharomyces cerevisiae) [µg/mL],MIC (Aspergillus flavus [6]) [µg/mL],further results
CN[C@H](CC(C)C)C(=O)N[C@H]1C(=O)N[C@@H](CC(N)=O)C(=O)N[C@H]2C(=O)N[C@H]3C(=O)N[C@H](C(=O)N[C@H](C(=O)O)c4cc(O)cc(O)c4-c4cc3ccc4O)[C@H](O)c3ccc(c(Cl)c3)Oc3cc2cc(c3O[C@@H]2O[C@H](CO)[C@@H](O)[C@H](O)[C@H]2O[C@H]2C[C@](C)(N)[C@H](O)[C@H](C)O2)Oc2ccc(cc2Cl)[C@H]1O [VANCOMYCIN],0.78,1.56,1.56,1.56,1.56,,,,,,,,,,
CCc1nnc(NC(=S)NS(=O)(=O)c2ccc(C)cc2)s1,50,6.25,3.12,0.78,1.56,50,1.56,3.12,200,100,12.5,6.25,25,6.25,IC50 (DNA gyrase subunit B): 3.17 µM; IC50 (Dihydrofolate reductase): 0.47 µM; IC50 [3]: 78.1 µM
Cc1ccc(S(=O)(=O)NC(=S)Nc2nnc(C)s2)cc1,100,25,12.5,6.25,6.25,1.56,0.78,12.5,50,50,6.25,25,6.25,25,
Cc1ccc(S(=O)(=O)NC(=S)Nc2nnc(C(C)C)s2)cc1,1.56,12.5,3.12,50,1.56,12.5,6.25,6.25,3.12,6.25,3.12,6.25,100,200,
Clc1ccc(COC(Cn2ccnc2)c2ccc(Cl)cc2Cl)c(Cl)c1 (configuration not stated) [MICONAZOLE],,,,,,,3.12,,,1.56,,3.12,3.12,1.56,
Cc1ccc(S(=O)(=O)NC(=S)Nc2nnc(CC(C)C)s2)cc1,12.5,100,0.78,3.12,0.78,6.25,3.12,50,6.25,50,400,1.56,3.12,0.78,
OC(Cn1cncn1)(Cn1cncn1)c1ccc(F)cc1F [FLUCONAZOLE],,,,,,,0.78,,,1.56,,0.78,0.78,0.78,MIC (Escherichia coli [7]): 6.25 µg/mL; MIC (Aspergillus flavus [8]): 6.25 µg/mL; MIC (Candida albicans [9]): 6.25 µg/mL; MIC (Candida albicans [10]): 0.05 µg/mL; MIC (Staphylococcus aureus [11]): 6.25 µg/mL
O=S(=O)(NC(=S)Nc1ccccc1)c1ccccc1,,,,,,,,,,,,,,,IC50 (Carbonic anhydrase 2): 422 µM
NNC(=O)c1ccncc1 [ISONIAZID],,,,,,,,,,,,,,,MIC [12]: 17.8 µM
CC[C@@H](CO)NCCN[C@@H](CC)CO [ETHAMBUTOL],,,,,,,,,,,,,,,MIC [12]: 11.5 µM
Fc1ccc(NC(=S)Nc2nnc(-c3ccc(Cl)cc3)s2)cc1,,,,,,,,,,,,,,,MIC [12]: 11 µM
Cc1ccc(S(=O)(=O)NC(=S)Nc2nncs2)cc1,3.12,3.12,12.5,200,12.5,25,25,1.56,1.56,200,50,25,12.5,50,IC50 (DNA gyrase subunit B): 1.56 µM; IC50 (Dihydrofolate reductase): 0.37 µM; IC50 [3]: 67.6 µM
CCCCCc1nnc(NC(=S)NS(=O)(=O)c2ccc(C)cc2)s1,0.78,0.78,200,12.5,200,0.78,200,100,0.78,3.12,1.56,1.56,400,12.5,IC50 (DNA gyrase subunit B): 1.22 µM; IC50 (Dihydrofolate reductase): 0.23 µM; IC50 [3]: 53.8 µM
FC(F)(F)c1cc(NC(=S)Nc2nnc(-c3ccc(Cl)cc3)s2)ccc1Cl,,,,,,,,,,,,,,,MIC [12]: 10.9 µM
Fc1ccc(NC(=S)Nc2nnc(-c3ccc(F)cc3)s2)cc1,,,,,,,,,,,,,,,MIC [12]: 10.9 µM
Cc1ccc(S(=O)(=O)NC(=S)Nc2nnc(CCC(C)C)s2)cc1,6.25,1.56,50,1.56,100,3.12,12.5,0.78,25,0.78,0.78,0.78,0.78,3.12,IC50 (DNA gyrase subunit B): 1.62 µM; IC50 (Dihydrofolate reductase): 0.35 µM; IC50 [3]: 66.7 µM
CCCCc1nnc(NC(=S)NS(=O)(=O)c2ccc(C)cc2)s1,400,400,400,400,400,400,400,400,400,400,400,400,400,400,
NC(=O)N/N=C/c1ccc([N+](=O)[O-])o1 [NITROFURAZONE],,,,,,,,,,,,,,,MIC (Escherichia coli [7]): 6.25 µg/mL; MIC (Aspergillus flavus [8]): 6.25 µg/mL; MIC (Candida albicans [9]): 6.25 µg/mL; MIC (Staphylococcus aureus [11]): 6.25 µg/mL
O=C(O)c1cn(C2CC2)c2cc(N3CCNCC3)c(F)cc2c1=O [CIPROFLOXACIN],3.12,3.12,,,3.12,1.56,,1.56,,,1.56,,,,
CCCc1nnc(NC(=S)NS(=O)(=O)c2ccc(C)cc2)s1,25,50,1.56,25,3.12,100,3.12,25,12.5,12.5,25,200,1.56,1.56,
S=C(/N=C/c1cc2cc(Cl)ccc2nc1Cl)Nc1nnc(-c2ccc(Cl)cc2)s1,,,,,,,,,,,,,,,MIC (Escherichia coli [7]): 3.12 µg/mL; MIC (Aspergillus flavus [8]): 3.12 µg/mL; MIC (Candida albicans [9]): 3.12 µg/mL; MIC (Staphylococcus aureus [11]): 3.12 µg/mL
CC(=O)OC[C@H]1O[C@@H](Sc2nnc(NC(=O)c3ccc(F)cc3)s2)[C@@H](OC(C)=O)[C@H](OC(C)=O)[C@@H]1OC(C)=O,,,,,,,,,,,,,,,EC50 (Phytophthora infestans): 3.43 µg/mL
C=CCNc1nnc(-c2ccccc2OCc2ccc(Cl)cc2)s1,,,,,,,,,,,,,,,MIC (Candida albicans [10]): 0.08 µg/mL
O=S(=O)(NC(=S)Nc1ccccc1)c1ccc(Cl)cc1,,,,,,,,,,,,,,,IC50 (Carbonic anhydrase 2): 384 µM
COc1ccc(/C(=C/C(=O)N2CCOCC2)c2ccc(Cl)cc2)cc1OC,,,,,,,,,,,,,,,EC50 (Phytophthora infestans): 5.53 µg/mL
